Three compounds from patent US11415579B2, “Assay for measuring a rate of reaction between a target and a ligand candidate” (Imperial College Innovations Ltd., priority 2016, dated 2022) can be followed below.

Assay [1] addresses T1, human cyclin-dependent kinase 2 (Cdk2) (Homo sapiens, UniProt P24941).
T1 construct: poly-histidine; made in house; host or cells: E. coli
Briefly: Kinetic thiol consumption assay with wild type Cdk2 (C177). To be noted: for Rate constant with Cdk2 (k(Cdk2)): 500 μM ligand, 5 μM thiol, phosphate buffer pH 8; for Rate enhancement, Cdk2 WT: no additional mutations; for Rate constant with Cdk2 WT: Protein: Cdk2, cysteine position WT, in h^-1; for k(Cdk2)/k(Cdk2_mut) rate enhancement: model thiol Cdk2[C177A, F80C, K278C]; for k(Cdk2)/k(GSH) rate enhancement: model thiol glutathione. Also on record: key to Rate enhancement, Cdk2 WT: k(Cdk2) divided by k(model thiol); Rate constant with Cdk2 (k(Cdk2)): unit not given here. In kind it is binding. The method in brief:
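Thiol 5 μM (Cdk2 or model thiol), degassed phosphate buffer pH 8, TCEP beads 2% v/v. Plates incubated 1 h RT, ex/em 380/470 nm. First-order decay fit → rate constant; ratio Cdk2/model thiol = rate enhancement.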

Assay [2] has as its target T2, Cdk2(R122C) (C177A) (Homo sapiens, UniProt P24941, C177A/R122C).
T2 construct: poly-histidine; made in house; host or cells: E. coli
The assay is described as follows: Kinetic thiol consumption assay with Cdk2 mutant R122C. In kind it is binding. The arrangement: key to Rate enhancement, Cdk2 R122C: rate constant with Cdk2 ÷ rate constant with model thiol (fold). The conditions noted are these: additional mutation C177A; for Rate constant with Cdk2 R122C: Protein: Cdk2, cysteine position R122C, in h-1. Put shortly:
(§1)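 5 μM thiol, degassed phosphate pH 8, 2% v/v immobilized TCEP beads; 1 h RT; fluorescence ex 380/em 470 nm; normalized vs DMSO/thiol-only; first-order exponential decay fit → rate constant; Cdk2 k / model-thiol k = rate enhancement per acrylamide.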

Assay [3] can be described thus: Kinetic thiol consumption assay with model thiol glutathione. To be noted: for Rate constant with glutathione (k(GSH)): 500 μM ligand, 5 μM thiol, phosphate buffer pH 8; for Rate constant with Glutathione: Protein: Glutathione, cysteine position NA, in h-1. Format: physicochemical. Also on record: Rate constant with glutathione (k(GSH)): unit not given here. Put shortly: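 GSH 5 μM, degassed phosphate buffer pH 8, TCEP beads 2% v/v; acrylamide added; RT, 1 h; fluorescence ex/em 380/470 nm; normalized to DMSO/thiol control; k from first-order exponential decay fit.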

Assay [4] concerns the target T3, Cdk2(T182C) (C177A) (Homo sapiens, UniProt P24941, C177A/T182C).
T3 construct: poly-histidine; made in house; host or cells: E. coli
Briefly: Kinetic thiol consumption assay with Cdk2 mutant T182C. Format: binding. The arrangement: key to Rate enhancement, Cdk2 T182C: rate constant with Cdk2 ÷ rate constant with model thiol (fold). To be noted: additional mutation C177A; for Rate constant with Cdk2 T182C: Protein: Cdk2, cysteine position T182C, in h^-1. The method in brief: as §1

Assay [5] has as its target T4, Cdk2(S276C) (C177A) (Homo sapiens, UniProt P24941, C177A/S276C).
T4 construct: poly-histidine; made in house; host or cells: E. coli
Briefly: Kinetic thiol consumption assay with Cdk2 mutant S276C. Format: binding. The arrangement: key to Rate enhancement, Cdk2 S276C: rate constant with Cdk2 ÷ rate constant with model thiol (fold). The conditions noted are these: additional mutation C177A; for Rate constant with Cdk2 S276C: Protein: Cdk2, cysteine position S276C, in h^-1. Put shortly: as §1

For assay [6], the target named is T5, Cdk2(H71C) (C177A) (Homo sapiens, UniProt P24941, C177A/H71C).
T5 construct: poly-histidine; made in house; host or cells: E. coli
Briefly: Kinetic thiol consumption assay with Cdk2 mutant H71C. The arrangement: key to Rate enhancement, Cdk2 H71C: rate constant with Cdk2 ÷ rate constant with model thiol (fold). In kind it is binding. To be noted: additional mutation C177A; for Rate constant with Cdk2 H71C: Protein: Cdk2, cysteine position H71C, in h^-1. The method in brief:
as §1

For assay [7], the target named is T6, Cdk2(S181C) (C177A) (Homo sapiens, UniProt P24941, C177A/S181C).
T6 construct: poly-histidine; made in house; host or cells: E. coli
Briefly: Kinetic thiol consumption assay with Cdk2 mutant S181C. In kind it is binding. The arrangement: key to Rate enhancement, Cdk2 S181C: rate constant with Cdk2 ÷ rate constant with model thiol (fold). The conditions noted are these: additional mutation C177A; for Rate constant with Cdk2 S181C: Protein: Cdk2, cysteine position S181C, in h^-1. The method in brief:
as §1

For assay [8], the target named is T7, Cdk2(C177A, F80C) (Homo sapiens, UniProt P24941, C177A/F80C).
T7 construct: poly-histidine; made in house; host or cells: E. coli
Briefly: Kinetic thiol consumption assay with Cdk2 mutant F80C, incl. kobs versus concentration (Kd, k2). In kind it is binding. The arrangement: key to Rate enhancement, Cdk2 F80C: Cdk2 rate constant divided by model-thiol rate constant. To be noted: additional mutation C177A; for Rate constant with Cdk2 F80C: Protein: Cdk2, cysteine position F80C, in h^-1. The method in brief:
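His-tagged Cdk2(C177A/F80C) from E. coli or model thiol, 5 μM in degassed phosphate buffer pH 8 with TCEP beads, reacted with acrylamide ligands; fluorescence (ex/em 380/470 nm) normalized to DMSO control and fitted to first-order decay for kobs. Kd and k2 obtained from hyperbolic fit of kobs versus ligand concentration.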

The target of assay [9] is T8, Cdk2(N272C) (C177A) (Homo sapiens, UniProt P24941, C177A/N272C).
T8 construct: poly-histidine; made in house; host or cells: E. coli
The assay is described as follows: Kinetic thiol consumption assay with Cdk2 mutant N272C. In kind it is binding. The arrangement: key to Rate enhancement, Cdk2 N272: rate constant with Cdk2 ÷ rate constant with model thiol (fold). The conditions noted are these: for Rate enhancement, Cdk2 N272: Cdk2 N272, additional mutation C177A; for Rate constant with Cdk2 N272C: Protein: Cdk2, cysteine position N272C, additional mutation C177A, in h^-1. Put shortly:
as §1

Assay [10] addresses T9, Cdk2[C177A, F80C, K278C] (Homo sapiens, UniProt P24941, C177A/F80C/K278C).
T9 construct: poly-histidine; made in house; host or cells: E. coli
Briefly: Kinetic thiol consumption assay with mutant Cdk2 as model thiol. In kind it is binding. Also on record: unit not given here. To be noted: 500 μM ligand, 5 μM thiol, phosphate buffer pH 8. Put shortly: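 Model thiol: His-tagged human Cdk2 C177A/F80C/K278C (two engineered surface cysteines), E. coli-expressed, 5 μM in degassed phosphate buffer pH 8 with immobilized TCEP beads (2% v/v). Fluorescence (ex/em 380/470 nm) followed over time at room temperature, normalized to DMSO/thiol control. First-order decay fit gives rate constants.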

Take `C=CC(=O)Nc1ccc(C(=O)c2ccccc2)cc1` [CA-219]: in assay [1], the “Rate constant with Cdk2 (k(Cdk2))” value is 0.2317; the “Rate enhancement, Cdk2 WT” value was 3.475; the “Rate constant with Cdk2 WT” value is 0.2317; the “k(Cdk2)/k(Cdk2_mut) rate enhancement” value stood at 0.3223. In addition, in [1], the “k(Cdk2)/k(GSH) rate enhancement” value came out at 3.556. Moreover, in [2], the “Rate enhancement, Cdk2 R122C” value is recorded as 0.1738 and the “Rate constant with Cdk2 R122C” value was found to be 0.01159. Besides, in [3], the “Rate constant with glutathione (k(GSH))” value worked out at 0.06515 and the “Rate constant with Glutathione” value is reported as 0.06668. In assay [4], the “Rate enhancement, Cdk2 T182C” value was 9.837 and the “Rate constant with Cdk2 T182C” value is given as 0.6559. In assay [5], the “Rate enhancement, Cdk2 S276C” value is reported as 1.204 and the “Rate constant with Cdk2 S276C” value is on record as 0.08025. For the same compound, in [6], the “Rate enhancement, Cdk2 H71C” value was 0.5597 and the “Rate constant with Cdk2 H71C” value stood at 0.03732. In assay [7], the “Rate enhancement, Cdk2 S181C” value turned out to be 0.5975 and the “Rate constant with Cdk2 S181C” value is on record as 0.03984. In assay [8], the “Rate enhancement, Cdk2 F80C” value turned out to be 17.8 and the “Rate constant with Cdk2 F80C” value turned out to be 1.187. Also, in assay [9], the “Rate enhancement, Cdk2 N272” value turned out to be 0.8368 and the “Rate constant with Cdk2 N272C” value is on record as 0.0558. For the same compound, in assay [10], the “Rate constant with Cdk2[C177A, F80C, K278C] (k(Cdk2_mut))” value (from here on “Rate constant … (k(Cdk2_mut))”) was found to be 0.7188.
For the compound `C=CC(=O)NCCNC(=O)C1CCCN1S(=O)(=O)c1ccccc1` (stereo not shown) [CA-224], in assay [1], the “Rate constant with Cdk2 (k(Cdk2))” value came out at 0.00155; the “Rate enhancement, Cdk2 WT” value was found to be 0.4112; the “Rate constant with Cdk2 WT” value is reported as 0.001548; the “k(Cdk2)/k(Cdk2_mut) rate enhancement” value is 0.4329. In addition, the “k(Cdk2)/k(GSH) rate enhancement” value in assay [1] was 0.3045. Moreover, the “Rate enhancement, Cdk2 R122C” value in assay [2] stood at 0. Besides, in assay [3], the “Rate constant with glutathione (k(GSH))” value was 0.00508 and the “Rate constant with Glutathione” value was found to be 0.003765. In addition, in assay [4], the “Rate enhancement, Cdk2 T182C” value is given as 1.292 and the “Rate constant with Cdk2 T182C” value is on record as 0.004866. For the same compound, in assay [5], the “Rate enhancement, Cdk2 S276C” value stood at 0.1717 and the “Rate constant with Cdk2 S276C” value turned out to be 0.0006465. Besides, in assay [6], the “Rate enhancement, Cdk2 H71C” value is listed as 0.8417 and the “Rate constant with Cdk2 H71C” value turned out to be 0.003169. The “Rate enhancement, Cdk2 S181C” value in assay [7] turned out to be 0. Further, in assay [8], the “Rate enhancement, Cdk2 F80C” value came out at 0.1623 and the “Rate constant with Cdk2 F80C” value was 0.000611. In addition, in assay [9], the “Rate enhancement, Cdk2 N272” value came out at 0.5596 and the “Rate constant with Cdk2 N272C” value is listed as 0.002107. Moreover, in assay [10], the “Rate constant … (k(Cdk2_mut))” value turned out to be 0.00358.
As to `C=CC(=O)N1CCCC(N2C(=O)CC3(CCCC3)C2=O)C1` (stereo not shown) [CA-236], in assay [1], the “Rate constant with Cdk2 (k(Cdk2))” value stood at 0.00116; the “Rate enhancement, Cdk2 WT” value is 0.1258; the “Rate constant with Cdk2 WT” value stood at 0.001156; the “k(Cdk2)/k(Cdk2_mut) rate enhancement” value worked out at 0.2924. Moreover, the “k(Cdk2)/k(GSH) rate enhancement” value in [1] is reported as 0.2286. Moreover, in [2], the “Rate enhancement, Cdk2 R122C” value is given as 0.2009 and the “Rate constant with Cdk2 R122C” value is 0.001846. Besides, in assay [3], the “Rate constant with glutathione (k(GSH))” value is given as 0.00506 and the “Rate constant with Glutathione” value was 0.009189. In assay [4], the “Rate enhancement, Cdk2 T182C” value came out at 1.042 and the “Rate constant with Cdk2 T182C” value worked out at 0.009576. In [5], the “Rate enhancement, Cdk2 S276C” value turned out to be 0.0707 and the “Rate constant with Cdk2 S276C” value is 0.0006497. In [6], the “Rate enhancement, Cdk2 H71C” value came out at 0.1903 and the “Rate constant with Cdk2 H71C” value was 0.001749. For the same compound, in assay [7], the “Rate enhancement, Cdk2 S181C” value is 0.2301 and the “Rate constant with Cdk2 S181C” value is given as 0.002114. In assay [8], the “Rate enhancement, Cdk2 F80C” value was determined as 0.4074 and the “Rate constant with Cdk2 F80C” value is recorded as 0.003744. In addition, in assay [9], the “Rate enhancement, Cdk2 N272” value is recorded as 0.09859 and the “Rate constant with Cdk2 N272C” value is on record as 0.0009059. Further, the “Rate constant … (k(Cdk2_mut))” value in assay [10] is on record as 0.00395.
